Measurements reported in article PMC10535741, “Styrylpyridinium Derivatives for Fluorescent Cell Imaging” (Pharmaceuticals, 2023).

Experiments:
[1] = Photoluminescence quantum yield (PLQY); type: physicochemical; details: DMSO solution
Method: Photoluminescence quantum yield (PLQY) values for the DMSO solution of compounds 6a–g were measured (Table 3, entry 4). […] The PLQY values for the SP derivatives 6f,g (each with an N-dimethylaminophenyl moiety) were 1.6% and 1.4%, respectively. The PLQY value for the SP derivative 6c (with a 4-dimethylaminophenyl moiety) was only 0.1%. The PLQY values for the SP derivatives 6d,e (each with a julolidinyl moiety) were 0.5% and 0.7%, respectively. Previously, we designed naphthalene-2-yl)vinyl)pyridinium groups containing 1,4-dihydropyridine amphiphile, for which the PLQY value for the EtOH solution was 1% [20].

[2] = test system: NIH3T3 (mouse fibroblast) cell line; experiment: Basal cytotoxicity, neutral red uptake (NRU) assay, with LD50 estimated from IC50; type: cell-based
Method: The evaluation of the in vitro cytotoxicity (IC50, half maximal inhibitory concentration) of the abovementioned compounds and their structural derivatives was assessed using the standard colorimetric 3-(4,5-dimethylthiazol-2-yl)-2,5-diphenyltetrazolium bromide (MTT) assay on two monolayer tumour cell lines, namely HT-1080 (human connective tissue fibrosarcoma) and MH-22A (mouse hepatocarcinoma). Additionally, the impact of the compound on non-cancerous “normal” cells—mouse fibroblasts (NIH3T3)—was estimated in order to measure the basal toxicity (LD50, median lethal dose). The obtained results were used for investigation of the structure–activity relationships and exploration of the effect of substituents on cellular response and toxicity. The estimated LD50 gives information regarding the compound properties and could potentially be used to select promising compounds by providing a starting dose for in vivo experiments.
To assess basal cytotoxicity, the neutral red uptake (NRU) assay was conducted following a modified version of the standard protocol of Stokes’ [71], as validated by the NICEATM-ECVAM study. The NRU cytotoxicity assay determines the ability of viable cells to incorporate and bind a supravital dye, neutral red (NR).
NIH3T3 cells (9000 cells/well) were cultured in 96-well plates in DMEM medium supplemented with 5% FBS for 24 h. Subsequently, the cells were exposed to the test compounds over a range of seven concentrations (1000 µg/mL, 316 µg/mL, 100 µg/mL, 31 µg/mL, 10 µg/mL, 3.0 µg/mL, and 1.0 µg/mL) for 24 h. Untreated cells were used as a control. After the incubation period, the medium was removed from all plates and a solution of NR was added (250 µL, 0.05 mg/mL NR in DMEM 24 h pre-incubated at 37 °C and then filtered before use through a 0.22 µm syringe filter). The plates were incubated for 3 h, followed by three washes with phosphate-buffered saline (PBS). The cells were then treated with a mixture of ethanol (50%) and water (49%) supplemented with 1% acetic acid. The absorbance of NR was measured using a spectrophotometer multiplate reader (Infinite M1000; Tecan Austria GmbH, Salzburg, Austria) at 540 nm. The optical density (OD) was then calculated using the following formula: ODtreated cells×100/ODcontrol cells.
The IC50 values were calculated using the program Graph Pad Prism® 3.0.
In vitro test results were employed to estimate the starting dose for acute oral systemic toxicity tests in rodents (LD50). The LD50 value was calculated using the in vitro IC50 value and a following formula: logLD50(mM/kg)=0.439×logIC50(mM)+0.621
The value was then converted to mg/kg and the compounds classified into four toxicity categories. Category 1 (highly toxic): LD50 ≤ 5 mg/kg; Category 2 (moderately toxic): 5 < LD50 ≤ 50 mg/kg; Category 3 (slightly toxic): 50 < LD50 ≤ 300 mg/kg; Category 4 (practically non-toxic): 300 < LD50 ≤ 2000 mg/kg.

## CCCCCCCCCCCCCCCC[n+]1ccc(C=CC=Cc2ccc(OC)cc2)cc1.[Br-] [Compound 6c, 1-hexadecyl-4-(4-(4-methoxyphenyl)buta-1,3-dien-1-yl)pyridin-1-ium bromide]
[1]
  PLQY, %: 0.1%

## CCCCCCCCCCCC[n+]1ccc(C=Cc2cc3c4c(c2)CCCN4CCC3)cc1.[Br-] [Compound 6d, 1-dodecyl-4-(2-(2,3,6,7-tetrahydro-1H,5H-pyrido[3,2,1-ij]quinolin-9-yl)vinyl)pyridin-1-ium bromide]
[2]; 6d versus 7a
  times higher basal cytotoxicity than compound 7a: 6.5 times
[1]
  PLQY, %: 0.5%

## CCCCCCCCCCCC[n+]1ccc(C=Cc2cc(OC)c(OC)c(OC)c2)cc1.[Br-] [Compound 6a, 4-(3,4,5-trimethoxystyryl)-N-dodecylpyridinium bromide]
[2]; ratio of LD50 values
  times decrease of basal toxicity of 6a compared with 6d: 1.5 times
[1]
  PLQY, %: 15.1%

## CCCCCCCCCCCCCCCC[n+]1ccc(C=Cc2cc(OC)c(OC)c(OC)c2)cc1.[Br-] [Compound 6b]
[2]
  times more toxic than 6a, basal toxicity: 2.8 times
[2]; estimated from in vitro NRU IC50 (24 h) by log LD50 = 0.439 x log IC50 + 0.621
  Basal cytotoxicity (NIH3T3) LD50: 91 ± 6 mg/kg
[2]; mouse
  Basal cytotoxicity (NIH3T3) LD50: 0.15 mM/kg
[1]
  PLQY, %: 12.2%

## CCCCCCCCCCCCCCCC[n+]1ccc(C=CC=Cc2cc3c4c(c2)CCCN4CCC3)cc1.[Br-] [Compound 6e, 1-hexadecyl-4-(4-(2,3,6,7-tetrahydro-1H,5H-pyrido[3,2,1-ij]quinolin-9-yl)buta-1,3-dien-1-yl)pyridin-1-ium bromide]
[2]; 6e versus 6d
  times lower basal cytotoxicity than 6d: ~ 2.8 times
[2]; from estimated LD50, NIH3T3
  basal toxicity classification in words: harmful
[1]
  PLQY, %: 0.7%
